Like-named read-outs stand apart in the source and are kept apart here.
Experiments:
Assay type in all cases: in vivo
Ctenocephalides felis = Ctenocephalides felis oral test; conditions: 48 h, application rate 100 ppm, in citrated cattle blood, after 2 days, read-out: efficacy (kill in %)
Procedure, shortened: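 Adult unfed cat fleas (~20 per chamber) fed through parafilm membrane on citrated cattle blood containing compound (DMSO formulation diluted in blood to test concentration). Kill (%) scored after 2 days; 100% = all fleas dead, 0% = none.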

Myzus persicae [1] = assay: Myzus persicae oral test; conditions: 120 h, application rate 4 ppm, after 5 days, read-out: efficacy
Procedure, shortened: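 Aphid feeding test: compound dissolved in acetone, diluted with water and mixed with IPL41 insect medium plus sugar, offered through parafilm to a mixed population of green peach aphids. Mortality scored after 5 days as % efficacy (100% = all aphids dead, 0% = none dead).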

Spodoptera frugiperda [2] = assay: Spodoptera frugiperda spray test; conditions: foliar, 168 h, application rate 100 g/ha, maize leaf discs, after 7 days, read-out: efficacy
Procedure: Spodoptera frugiperda—Spray Test
Solvent: • 78.0 parts by weight of acetone • 1.5 parts by weight of dimethylformamide
(§1) Emulsifier: alkylaryl polyglycol ether
To produce further test concentrations, the formulation is diluted with emulsifier-containing water.
After 7 days, the efficacy in % is determined. 100% means that all the caterpillars have been killed; 0% means that no caterpillar has been killed.

Myzus persicae [3] = assay: Myzus persicae spray test on bell pepper plants (MYZUPE S); conditions: 144 h, 6 dat, read-out: % Efficacy
Procedure: Myzus persicae—Spray Test (MYZUPE S)
(§2) Solvent: 14 parts by weight of dimethylformamide
as §1
(§3) To produce a suitable active compound preparation, 1 part by weight of active compound is dissolved using the stated parts by weight of solvent and made up with water containing an emulsifier concentration of 1000 ppm until the desired concentration is attained. To produce further test concentrations, the formulation is diluted with emulsifier-containing water. If the addition of ammonium salts or/and penetrants is required, these are each added in a concentration of 1000 ppm to the formulation solution.
Bell pepper plants (Capsicum annuum) severely infested with the green peach aphid (Myzus persicae) are treated by spraying with the active compound formulation in the desired concentration.
After the desired time, the kill in % is determined. 100% means that all the animals have been killed; 0% means that no animals have been killed.

Myzus persicae [4] = assay: Myzus persicae drench test (MYZUPE D); conditions: soil, 240 h, 10 dat, read-out: % Efficacy
Procedure: Myzus persicae—Drench Test (MYZUPE D)
Solvent: 7 parts by weight of dimethylformamide
Emulsifier: 2 part by weight of alkylaryl polyglycol ether
To produce a suitable active compound preparation, 1 part by weight of active compound is mixed with the specified amounts of solvent and emulsifier, and the concentrate is diluted with water to the desired concentration, it being necessary to include the volume of soil which is drenched in the calculation. It should be ensured that a concentration of 40 ppm of emulsifier in the soil is not exceeded. To produce further test concentrations, water is used for dilution.
Savoy cabbage (Brassica oleracea) in pots with soil and infested by all stages of the green peach aphid (Myzus persicae) is watered with an active compound preparation of the desired concentration.
After the desired period of time, the efficacy in % is determined. 100% means that all the aphids have been killed; 0% means that no aphids have been killed.

Aphis gossypii = Aphis gossypii spray test (APHIGO S); conditions: 144 h, 6 dat, read-out: % Efficacy
Procedure: Aphis gossypii—Spray Test (APHIGO S)
as §2, §1, §3
Cotton plants (Gossypium hirsutum) heavily infested by the cotton aphid (Aphis gossypii) are sprayed with an active compound formulation of the desired concentration.
After the desired time, the kill in % is determined. 100% means that all the aphids have been killed; 0% means that no aphids have been killed.

Spodoptera frugiperda [5] = assay: Spodoptera frugiperda test on maize plants (SPODFR S); conditions: 6 dai, read-out: % Efficacy
Procedure: Spodoptera frugiperda Test (SPODFR S)
as §2
(§4) Emulsifier: 2 parts by weight of alkylaryl polyglycol ether
(§5) To produce a suitable active compound formulation, 1 part by weight of active compound is dissolved with the stated parts by weight of solvent and emulsifier and made up to the desired concentration with water. To produce further test concentrations, water is used for dilution. In the event that addition of ammonium salts or/and penetrants (rapeseed oil methyl ester) is required, these are each pipetted in at a concentration of 1000 ppm after the finished formulation solution has been diluted.
Maize plants (Zea mays) are sprayed with an active compound formulation of the desired concentration and, in each case after 5, 12 and 19 days, populated with 5 caterpillars (L2) of the fall armyworm (Spodoptera frugiperda).
(§6) The kill is determined 6 days after the infection. 100% means that all the caterpillars have been killed and 0% means that none of the caterpillars have been killed.

Heliothis armigera = Heliothis armigera test (HELIAR S); conditions: Helicoverpa armigera, 6 dai, read-out: % Efficacy
Procedure: Heliothis armigera Test (HELIAR S)
as §2, §4, §5
Cotton plants (Gossypium hirsutum) are sprayed with an active compound formulation of the desired concentration and, in each case after 12 and 19 days, populated with 5 caterpillars (L2) of the cotton bollworm (Heliothis armigera).
as §6

Phaedon cochleariae = Phaedon cochleariae test on cabbage plants (PHAECO S); conditions: 6 dai, read-out: % Efficacy
Procedure: Phaedon cochleariae Test (PHAECO S)
as §2, §4, §5
Cabbage plants (Brassica oleracea var. sabauda) are sprayed with an active compound formulation of the desired concentration and populated with 10 L2 larvae of the mustard beetle (Phaedon cochleariae).
After the desired time, the kill in % is determined. 100% means that all the larvae have been killed and 0% means that none of the larvae have been killed.

CCS(=O)(=O)c1c(-c2nc3cc(C(F)(F)F)cnc3n2C)ncc2cc(Br)ccc12 [Example I-037, 7-Bromo-4-ethylsulfonyl-3-[3-methyl-6-(trifluoromethyl)imidazo[4,5-b]pyridin-2-yl]isoquinoline]
pest or weed control at 100 ppm (Ctenocephalides felis): 100% | pest or weed control at 4 ppm (Myzus persicae [1]): 100% | pest or weed control at 100 g/ha (Spodoptera frugiperda [2]): 100% | Emax at 0.8 ppm (Myzus persicae [3]; 0.8 ppm): 100% | Emax at 4 ppm (Myzus persicae [3]; 4 ppm): 100% | Emax at 4 ppm (Myzus persicae [4]): 90% | Emax at 4 ppm (Aphis gossypii): 65% | Emax at 0.16 ppm (Spodoptera frugiperda [5]; 120 h, infection 5 dat): 70% | Emax at 0.16 ppm (Spodoptera frugiperda [5]; 288 h, infection 12 dat): 50% | Emax at 0.8 ppm (Spodoptera frugiperda [5]; 288 h, infection 12 dat): 100% | Emax at 0.8 ppm (Spodoptera frugiperda [5]; 456 h, infection 19 dat): 100% | Emax at 0.16 ppm (Heliothis armigera; 288 h, infection 12 dat): 80% | Emax at 0.16 ppm (Heliothis armigera; 456 h, infection 19 dat): 70% | Emax at 0.16 ppm (Phaedon cochleariae; 120 h, infection 5 dat): 80% | Emax at 0.16 ppm (Phaedon cochleariae; 288 h, infection 12 dat): 60% | Emax at 0.8 ppm (Phaedon cochleariae; 288 h, 0.8 ppm, infection 12 dat): 100%

Reference: patent US20230060425A1, “FUSED BICYCLIC HETEROCYCLE DERIVATIVES AS PESTICIDES” (Bayer Aktiengesellschaft, priority 2019, published 2023)
